Measurements taken from ChEMBL document CHEMBL3751715, “Design and synthesis of an activity-based protein profiling probe derived from cinnamic hydroxamic acid” (Bioorg Med Chem, 2016).
≈ marks a conversion by molar mass, not a printed value.

Tests used:
Matrilysin = Matrilysin (Homo sapiens, UniProt P09237); test: Inhibition of human recombinant MMP7 expressed in Escherichia coli using (5-FAM/QXLTM) FRET peptide as substrate
Histone deacetylase 11 = Histone deacetylase 11 (Homo sapiens, UniProt Q96DB2); test: Inhibition of N-terminal GST-tagged human HDAC11 expressed in baculovirus expression system using (Arg-His-Lys-Lys(Ac)) as substrate by plate reader analysis
Histone deacetylase 11, sequence (Q96DB2 whole entry): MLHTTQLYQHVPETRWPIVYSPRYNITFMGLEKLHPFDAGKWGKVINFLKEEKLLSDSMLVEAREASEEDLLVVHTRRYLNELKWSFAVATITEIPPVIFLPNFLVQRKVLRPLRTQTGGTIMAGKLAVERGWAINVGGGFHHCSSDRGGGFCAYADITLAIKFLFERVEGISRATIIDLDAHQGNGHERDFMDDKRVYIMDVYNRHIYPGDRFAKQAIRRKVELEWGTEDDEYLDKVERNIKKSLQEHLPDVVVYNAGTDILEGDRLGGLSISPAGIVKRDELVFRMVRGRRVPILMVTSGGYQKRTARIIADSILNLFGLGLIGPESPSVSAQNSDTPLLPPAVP

[1] = Thermodynamic solubility of the compound in DPBS buffer at pH 7.4 after 72 hrs by UV spectrometric analysis; assay type: physicochemical; conditions: read-out: Therm_solubility
[2] = Half life in mouse liver microsomes at 1 uM by LC-MS/MS analysis in presence of UDPGA; assay type: ADME
Collagenase 3 = Collagenase 3 (Homo sapiens, UniProt P45452); test: Inhibition of human recombinant MMP13 expressed in Escherichia coli using (5-FAM/QXLTM) FRET peptide as substrate
[3] = molecular target: Macrophage metalloelastase (Homo sapiens, UniProt P39900); test: Inhibition of human recombinant MMP12 expressed in Escherichia coli using (5-FAM/QXLTM) FRET peptide as substrate
Macrophage metalloelastase, sequence (P39900 whole entry): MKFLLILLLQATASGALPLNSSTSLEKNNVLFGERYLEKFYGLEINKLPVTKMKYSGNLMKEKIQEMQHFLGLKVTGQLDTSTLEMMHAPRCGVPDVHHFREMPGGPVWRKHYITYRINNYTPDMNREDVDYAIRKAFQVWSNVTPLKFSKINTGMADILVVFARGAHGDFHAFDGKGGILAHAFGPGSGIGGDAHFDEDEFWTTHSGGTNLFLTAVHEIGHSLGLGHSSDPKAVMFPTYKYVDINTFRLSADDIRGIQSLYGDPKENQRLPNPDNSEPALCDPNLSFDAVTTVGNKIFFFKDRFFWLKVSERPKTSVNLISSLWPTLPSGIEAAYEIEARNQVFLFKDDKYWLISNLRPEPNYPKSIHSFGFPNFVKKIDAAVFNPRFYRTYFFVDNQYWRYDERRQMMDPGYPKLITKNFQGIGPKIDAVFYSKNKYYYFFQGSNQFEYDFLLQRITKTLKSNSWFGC

Interstitial collagenase = Interstitial collagenase (Homo sapiens, UniProt P03956); test: Inhibition of human recombinant MMP1 expressed in Escherichia coli using (5-FAM/QXLTM) FRET peptide as substrate
Histone deacetylase 8 = Histone deacetylase 8 (Homo sapiens, UniProt Q9BY41); test: Inhibition of full length human HDAC8 expressed in Escherichia coli using (Arg-His-Lys(Ac)-Lys(Ac)) as substrate by plate reader analysis
Histone deacetylase 8, sequence (Q9BY41 whole entry): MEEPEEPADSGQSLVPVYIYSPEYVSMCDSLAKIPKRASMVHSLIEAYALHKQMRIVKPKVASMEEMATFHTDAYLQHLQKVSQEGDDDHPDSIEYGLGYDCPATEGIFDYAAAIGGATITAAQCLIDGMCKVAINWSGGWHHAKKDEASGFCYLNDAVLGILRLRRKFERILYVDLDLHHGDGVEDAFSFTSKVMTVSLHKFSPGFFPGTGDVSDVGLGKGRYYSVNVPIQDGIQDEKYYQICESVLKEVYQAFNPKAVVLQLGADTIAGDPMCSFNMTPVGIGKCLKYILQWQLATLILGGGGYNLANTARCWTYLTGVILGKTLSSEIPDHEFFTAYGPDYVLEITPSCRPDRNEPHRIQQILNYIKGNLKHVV

[4] = molecular target: Matrix metalloproteinase-9 (Homo sapiens, UniProt P14780); test: Inhibition of human recombinant MMP9 expressed in Escherichia coli using (5-FAM/QXLTM) FRET peptide as substrate
Stromelysin-1 = Stromelysin-1 (Homo sapiens, UniProt P08254); test: Inhibition of human recombinant MMP3 expressed in Escherichia coli using (5-FAM/QXLTM) FRET peptide as substrate
Hepatitis C virus [5] = test: Antiviral activity against HCV assessed as reduction of viral replicon RNA level by RT-qPCR analysis; assay type: functional, organism-based; conditions: Hepacivirus hominis
Histone deacetylase 7 = Histone deacetylase 7 (Homo sapiens, UniProt Q8WUI4); test: Inhibition of N-terminal GST-tagged human HDAC7 expressed in baculovirus expression system using (Boc-Lys(trifluoroacetyl)-AMC) as substrate by plate reader analysis
[6] = Half life in mouse liver microsomes at 1 uM by LC-MS/MS analysis in presence of NADPH; assay type: ADME
[7] = test system: Hepatitis C virus subtype 1b; test: Inhibition of recombinant HCV genotype 1b NS5B Cdelta55 RNA dependent RNA polymerase at 10 uM incubated for 3 hrs using Oligo-U12 primer, UTP and Poly(A) template by scintillation proximity assay
[8] = molecular target: Polyamine deacetylase HDAC10 (Homo sapiens, UniProt Q969S8); test: Inhibition of N-terminal GST-tagged human HDAC10 expressed in Sf9 cells using (Arg-His-Lys-Lys(Ac)) as substrate by plate reader analysis
Polyamine deacetylase HDAC10, sequence (Q969S8 whole entry): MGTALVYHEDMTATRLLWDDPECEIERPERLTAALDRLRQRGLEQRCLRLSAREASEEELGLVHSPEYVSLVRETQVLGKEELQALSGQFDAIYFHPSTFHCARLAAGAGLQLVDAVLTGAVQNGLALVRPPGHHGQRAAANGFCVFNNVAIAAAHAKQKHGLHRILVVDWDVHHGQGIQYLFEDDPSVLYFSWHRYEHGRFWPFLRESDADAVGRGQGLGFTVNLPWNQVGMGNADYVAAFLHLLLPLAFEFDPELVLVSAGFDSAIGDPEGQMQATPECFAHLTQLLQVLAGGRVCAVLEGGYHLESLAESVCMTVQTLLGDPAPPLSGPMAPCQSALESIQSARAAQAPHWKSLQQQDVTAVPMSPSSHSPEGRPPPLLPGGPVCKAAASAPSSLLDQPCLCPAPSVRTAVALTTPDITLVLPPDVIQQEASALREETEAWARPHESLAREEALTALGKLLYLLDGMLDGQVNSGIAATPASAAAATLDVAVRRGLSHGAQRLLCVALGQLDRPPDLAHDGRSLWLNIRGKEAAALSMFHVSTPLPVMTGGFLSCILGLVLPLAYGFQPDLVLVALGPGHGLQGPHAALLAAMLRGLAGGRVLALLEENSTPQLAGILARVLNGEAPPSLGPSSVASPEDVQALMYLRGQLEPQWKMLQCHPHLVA

[9] = Half life in human liver microsomes at 1 uM by LC-MS/MS analysis in presence of UDPGA; assay type: ADME
Histone deacetylase 3 = Histone deacetylase 3 (Homo sapiens, UniProt O15379); test: Inhibition of full length C-terminal His-tagged human HDAC3 expressed in baculovirus expression system using (Arg-His-Lys-Lys(Ac)) as substrate by plate reader analysis
[10] = molecular target: Matrix metalloproteinase-14 (Homo sapiens, UniProt P50281); test: Inhibition of human recombinant MMP14 expressed in Escherichia coli using (5-FAM/QXLTM) FRET peptide as substrate
[11] = Half life in mouse plasma at 1 to 24 hrs by LC-MS/MS analysis; assay type: ADME, cell-free
[12] = Inhibition of recombinant HCV genotype 1b NS3/4A protease expressed in Escherichia coli using Ac-DE-D(Edans)-EE-Abu-[COO]-AS-K(Dabcyl)-NH2 as substrate; set-up: species or system Hepatitis C virus subtype 1b
Histone deacetylase 9 = Histone deacetylase 9 (Homo sapiens, UniProt Q9UKV0); test: Inhibition of C-terminal His-tagged human HDAC9 expressed in baculovirus expression system using (Boc-Lys(trifluoroacetyl)-AMC) as substrate by plate reader analysis
Histone deacetylase 9, sequence (Q9UKV0 whole entry): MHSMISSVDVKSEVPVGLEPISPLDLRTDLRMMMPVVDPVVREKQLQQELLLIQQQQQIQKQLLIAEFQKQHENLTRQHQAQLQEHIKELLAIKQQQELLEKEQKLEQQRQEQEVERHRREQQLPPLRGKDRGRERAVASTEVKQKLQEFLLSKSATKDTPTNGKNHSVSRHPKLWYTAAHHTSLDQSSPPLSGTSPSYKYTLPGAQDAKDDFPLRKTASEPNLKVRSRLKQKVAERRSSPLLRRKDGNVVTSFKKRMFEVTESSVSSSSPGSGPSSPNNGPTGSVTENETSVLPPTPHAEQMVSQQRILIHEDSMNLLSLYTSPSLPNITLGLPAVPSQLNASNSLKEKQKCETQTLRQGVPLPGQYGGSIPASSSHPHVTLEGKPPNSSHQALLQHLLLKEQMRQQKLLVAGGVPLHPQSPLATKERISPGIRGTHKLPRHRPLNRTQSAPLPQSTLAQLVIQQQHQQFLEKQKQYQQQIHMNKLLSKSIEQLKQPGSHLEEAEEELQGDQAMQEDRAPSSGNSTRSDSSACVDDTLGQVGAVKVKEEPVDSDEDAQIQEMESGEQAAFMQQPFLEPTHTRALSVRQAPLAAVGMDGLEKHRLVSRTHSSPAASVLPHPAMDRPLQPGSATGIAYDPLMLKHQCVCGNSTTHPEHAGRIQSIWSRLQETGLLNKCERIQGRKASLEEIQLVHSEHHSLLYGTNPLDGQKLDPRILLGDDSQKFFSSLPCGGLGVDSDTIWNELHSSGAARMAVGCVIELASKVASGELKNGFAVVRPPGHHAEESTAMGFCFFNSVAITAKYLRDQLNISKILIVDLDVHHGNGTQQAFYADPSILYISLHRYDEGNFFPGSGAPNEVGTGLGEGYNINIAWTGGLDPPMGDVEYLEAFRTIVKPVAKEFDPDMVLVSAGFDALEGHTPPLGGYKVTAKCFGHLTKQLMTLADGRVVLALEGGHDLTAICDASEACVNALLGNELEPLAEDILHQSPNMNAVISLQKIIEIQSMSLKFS

Neutrophil collagenase = Neutrophil collagenase (Homo sapiens, UniProt P22894); test: Inhibition of human recombinant MMP8 expressed in Escherichia coli using (5-FAM/QXLTM) FRET peptide as substrate
Histone deacetylase 4 = Histone deacetylase 4 (Homo sapiens, UniProt P56524); test: Inhibition of N-terminal GST-tagged human HDAC4 expressed in baculovirus expression system using (Boc-Lys(trifluoroacetyl)-AMC) as substrate by plate reader analysis
Histone deacetylase 4, sequence (P56524 whole entry, the tested form may be a part): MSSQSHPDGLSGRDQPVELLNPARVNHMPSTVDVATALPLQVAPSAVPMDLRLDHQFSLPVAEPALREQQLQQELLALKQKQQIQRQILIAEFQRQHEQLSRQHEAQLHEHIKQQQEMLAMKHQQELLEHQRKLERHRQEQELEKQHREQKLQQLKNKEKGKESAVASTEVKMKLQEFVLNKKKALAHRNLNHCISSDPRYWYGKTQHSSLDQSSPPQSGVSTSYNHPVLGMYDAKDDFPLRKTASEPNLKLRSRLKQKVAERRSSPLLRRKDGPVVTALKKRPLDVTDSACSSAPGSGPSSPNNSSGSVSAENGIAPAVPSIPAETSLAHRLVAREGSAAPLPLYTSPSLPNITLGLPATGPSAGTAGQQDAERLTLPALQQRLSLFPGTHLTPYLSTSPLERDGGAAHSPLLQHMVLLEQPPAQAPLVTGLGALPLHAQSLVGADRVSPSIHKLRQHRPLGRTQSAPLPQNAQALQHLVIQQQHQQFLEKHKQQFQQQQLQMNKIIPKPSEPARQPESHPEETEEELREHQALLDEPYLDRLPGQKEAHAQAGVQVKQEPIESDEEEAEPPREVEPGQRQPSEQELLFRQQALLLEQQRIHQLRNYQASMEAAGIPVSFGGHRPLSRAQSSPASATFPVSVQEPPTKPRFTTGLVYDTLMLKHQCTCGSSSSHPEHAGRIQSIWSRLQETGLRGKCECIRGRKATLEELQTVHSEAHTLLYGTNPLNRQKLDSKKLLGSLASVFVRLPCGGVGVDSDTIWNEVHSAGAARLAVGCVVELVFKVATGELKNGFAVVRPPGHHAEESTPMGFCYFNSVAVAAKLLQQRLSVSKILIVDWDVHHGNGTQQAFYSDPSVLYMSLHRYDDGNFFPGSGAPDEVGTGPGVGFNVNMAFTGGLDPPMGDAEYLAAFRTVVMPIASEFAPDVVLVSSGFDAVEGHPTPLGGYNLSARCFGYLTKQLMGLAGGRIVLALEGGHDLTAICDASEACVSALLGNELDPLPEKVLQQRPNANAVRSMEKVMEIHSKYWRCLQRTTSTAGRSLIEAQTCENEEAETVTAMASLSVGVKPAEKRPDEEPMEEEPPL

[13] = molecular target: Disintegrin and metalloproteinase domain-containing protein 17 (Homo sapiens, UniProt P78536); test: Inhibition of human recombinant TACE expressed in Sf21 cells using MCA-PLAQAV-Dpa-RSSSR-NH2 as substrate
Disintegrin and metalloproteinase domain-containing protein 17, sequence (P78536 whole entry, the tested form may be a part): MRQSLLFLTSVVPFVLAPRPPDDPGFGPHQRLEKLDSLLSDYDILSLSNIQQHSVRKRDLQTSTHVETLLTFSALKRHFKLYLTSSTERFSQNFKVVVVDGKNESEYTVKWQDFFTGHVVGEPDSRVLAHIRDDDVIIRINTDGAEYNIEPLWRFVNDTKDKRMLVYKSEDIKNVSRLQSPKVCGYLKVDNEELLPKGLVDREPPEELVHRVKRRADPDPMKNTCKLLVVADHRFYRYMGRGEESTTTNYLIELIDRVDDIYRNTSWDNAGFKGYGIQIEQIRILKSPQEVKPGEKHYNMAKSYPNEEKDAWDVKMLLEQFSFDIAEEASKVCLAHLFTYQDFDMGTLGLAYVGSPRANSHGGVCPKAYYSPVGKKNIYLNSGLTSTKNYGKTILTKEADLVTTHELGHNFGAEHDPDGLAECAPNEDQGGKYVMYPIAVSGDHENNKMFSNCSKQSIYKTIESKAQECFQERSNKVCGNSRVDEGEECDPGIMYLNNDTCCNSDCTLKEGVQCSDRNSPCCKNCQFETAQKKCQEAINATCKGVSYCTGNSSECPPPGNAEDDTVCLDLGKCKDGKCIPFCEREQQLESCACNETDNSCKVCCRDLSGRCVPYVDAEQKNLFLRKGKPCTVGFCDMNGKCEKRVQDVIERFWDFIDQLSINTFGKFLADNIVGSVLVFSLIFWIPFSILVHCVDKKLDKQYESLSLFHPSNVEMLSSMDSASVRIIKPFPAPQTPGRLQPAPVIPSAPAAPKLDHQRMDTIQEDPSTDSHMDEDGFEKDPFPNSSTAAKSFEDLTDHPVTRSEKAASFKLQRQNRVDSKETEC

[14] = Half life in human liver microsomes at 1 uM by LC-MS/MS analysis in presence of NADPH; assay type: ADME
Histone deacetylase 1 = Histone deacetylase 1 (Homo sapiens, UniProt Q13547); test: Inhibition of full length C-terminal GST-tagged human HDAC1 expressed in Sf9 cells using (Arg-His-Lys-Lys(Ac)) as substrate by plate reader analysis
Histone deacetylase 5 = Histone deacetylase 5 (Homo sapiens, UniProt Q9UQL6); test: Inhibition of full length N-terminal GST-tagged human HDAC5 expressed in Sf9 cells using (Boc-Lys(trifluoroacetyl)-AMC) as substrate by plate reader analysis
Stromelysin-2 = Stromelysin-2 (Homo sapiens, UniProt P09238); test: Inhibition of human recombinant MMP10 expressed in Escherichia coli using (5-FAM/QXLTM) FRET peptide as substrate
[15] = Half life in human plasma at 1 to 24 hrs by LC-MS/MS analysis; assay type: ADME, cell-free
Histone deacetylase 2 = Histone deacetylase 2 (Homo sapiens, UniProt Q92769); test: Inhibition of full length C-terminal His-tagged human HDAC2 expressed in Sf9 cells using (Arg-His-Lys-Lys(Ac)) as substrate by plate reader analysis
[16] = molecular target: Protein deacetylase HDAC6 (Homo sapiens, UniProt Q9UBN7); test: Inhibition of full length N-terminal GST-tagged human HDAC6 expressed in Sf9 cells using (Arg-His-Lys-Lys(Ac)) as substrate by plate reader analysis
Hepatitis C virus [17] = test: Antiviral activity against HCV genotype 1b replicon infected in human HuH7 cells after 3 days by luciferase reporter assay; assay type: functional, organism-based, Hepacivirus hominis; conditions: Huh-7, 72 h
[18] = Cytotoxicity against human HuH7 cells assessed as cell viability after 3 days by CellTiter 96 aqueous one solution cell proliferation assay; assay type: cell-based, Huh-7
[19] = Therapeutic index, ratio of CC50 for human HuH7 cells to EC50 for HCV genotype 1b replicon; assay type: cell-based, Huh-7; conditions: read-out: Ratio CC50/EC50
[20] = Cytotoxicity against human HuH7 cells assessed as inhibition of cell viability at 10 uM after 3 days by CellTiter 96 aqueous one solution cell proliferation assay; assay type: cell-based, Huh-7; conditions: read-out: Activity
Hepatitis C virus [21] = test: Antiviral activity against HCV genotype 1b replicon infected in human HuH7 cells at 10 uM after 3 days by luciferase reporter assay; assay type: functional, Hepacivirus hominis; conditions: Huh-7, 72 h

Matrilysin, sequence (P09237 whole entry): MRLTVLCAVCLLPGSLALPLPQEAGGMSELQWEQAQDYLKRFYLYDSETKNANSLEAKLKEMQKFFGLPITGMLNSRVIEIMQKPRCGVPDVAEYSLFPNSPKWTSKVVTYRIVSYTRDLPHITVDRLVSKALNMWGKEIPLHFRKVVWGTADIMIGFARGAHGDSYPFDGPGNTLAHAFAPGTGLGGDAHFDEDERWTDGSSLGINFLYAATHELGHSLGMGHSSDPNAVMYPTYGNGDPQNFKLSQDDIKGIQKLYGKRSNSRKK

Question: For `O=C(/C=C/c1ccc(C(F)(F)F)cc1)NO`, which IC50 (Matrilysin) is on record?
Answer: The IC50 was greater than 100 µM.

Question: And the IC50 (Histone deacetylase 11)?
Answer: Its IC50 is 5.53 µM.

Question: What about the solubility thermodynamic at 72 h [1] of the same compound?
Answer: The solubility thermodynamic at 72 h was 648 µM (≈ 150 µg/mL).

Question: And the half-life at 1 µM [2]?
Answer: The half-life at 1 µM was 0.247 h.

Question: What about the IC50 (Collagenase 3) of the same compound?
Answer: The IC50 was greater than 100 µM.

Question: What about the IC50 [3] of the same compound?
Answer: Its IC50 is greater than 100 µM.

Question: And the IC50 (Interstitial collagenase)?
Answer: The IC50 was greater than 100 µM.

Question: What about the IC50 (Histone deacetylase 8) of the same compound?
Answer: Its IC50 is 0.954 µM.

Question: What about the IC50 [4] of the same compound?
Answer: Its IC50 is greater than 100 µM.

Question: And the IC50 (Stromelysin-1)?
Answer: The IC50 was greater than 100 µM.

Question: And the Activity (Hepatitis C virus [5])?
Answer: Its Activity is “Dose-dependent effect”.

Question: What about the IC50 (Histone deacetylase 7) of the same compound?
Answer: The IC50 was greater than 100 µM.

Question: And the half-life at 1 µM [6]?
Answer: The half-life at 1 µM was 0.77 h.

Question: And the inhibition [7]?
Answer: The inhibition was less than 5%.

Question: What about the IC50 [8] of the same compound?
Answer: Its IC50 is 6.32 µM.

Question: What about the half-life at 1 µM [9] of the same compound?
Answer: The half-life at 1 µM was 8.88 h.

Question: And the IC50 (Histone deacetylase 3)?
Answer: The IC50 was 5.37 µM.

Question: And the IC50 [10]?
Answer: Its IC50 is greater than 100 µM.

Question: And the half-life [11]?
Answer: Its half-life is 23.2 h.

Question: What about the IC50 [12] of the same compound?
Answer: Its IC50 is greater than 200 µM.

Question: What about the IC50 (Histone deacetylase 9) of the same compound?
Answer: The IC50 was greater than 100 µM.

Question: And the IC50 (Neutrophil collagenase)?
Answer: The IC50 was greater than 100 µM.

Question: What about the IC50 (Histone deacetylase 4) of the same compound?
Answer: Its IC50 is greater than 100 µM.

Question: What about the IC50 [13] of the same compound?
Answer: Its IC50 is 21.5 µM.

Question: And the half-life at 1 µM [14]?
Answer: The half-life at 1 µM was 11.6 h.

Question: And the IC50 (Histone deacetylase 1)?
Answer: Its IC50 is 4.11 µM.

Question: What about the IC50 (Histone deacetylase 5) of the same compound?
Answer: Its IC50 is 34.7 µM.

Question: What about the IC50 (Stromelysin-2) of the same compound?
Answer: Its IC50 is greater than 100 µM.

Question: And the half-life [15]?
Answer: Its half-life is greater than 24 h.

Question: What about the IC50 (Histone deacetylase 2) of the same compound?
Answer: Its IC50 is 6.36 µM.

Question: What about the IC50 [16] of the same compound?
Answer: The IC50 was 0.183 µM.

Question: With `O=C(/C=C/c1ccc(C(=O)c2ccccc2)cc1)NO` as the compound, how does the EC50 (Hepatitis C virus [17]) read?
Answer: Its EC50 is 0.48 µM.

Question: What about the CC50 at 72 h [18] of the same compound?
Answer: Its CC50 at 72 h is 16 µM.

Question: What about the selectivity ratio [19] of the same compound?
Answer: The selectivity ratio was 33.

Question: For `C#CCCCC(=O)NCCOCCOCCOc1ccc(C(=O)c2ccc(/C=C/C(=O)NO)cc2)cc1`, which EC50 (Hepatitis C virus [17]) is on record?
Answer: Its EC50 is 1.2 µM.

Question: And the CC50 at 72 h [18]?
Answer: The CC50 at 72 h was 25 µM.

Question: What about the selectivity ratio [19] of the same compound?
Answer: Its selectivity ratio is 21.

Question: Which results are given for `O=C(NO)c1sc2ccccc2c1S(=O)(=O)c1ccccc1`?
Answer: solubility thermodynamic at 72 h [1]: 3350 µM (≈ 1120 µg/mL); half-life at 1 µM [2]: 0.0283 h; Activity (Hepatitis C virus [5]): Dose-dependent effect; half-life at 1 µM [6]: 1.31 h; half-life at 1 µM [9]: 0.0233 h; half-life [11]: > 24 h; half-life at 1 µM [14]: 12.8 h; half-life [15]: > 24 h

Question: For `[N-]=[N+]=NCCCNC(=O)CCCC[C@@H]1SC[C@@H]2NC(=O)N[C@@H]21`, which inhibition at 72 h, 10 µM [20] is on record?
Answer: The inhibition at 72 h, 10 µM was less than 5%.

Question: And the inhibition at 10 µM (Hepatitis C virus [21])?
Answer: The inhibition at 10 µM was less than 10%.

Question: For `C#CCCCC(=O)NCCOCCOCCOc1ccc(C(=O)c2ccc(/C=C/C(=O)O)cc2)cc1`, which inhibition at 72 h, 10 µM [20] is on record?
Answer: The inhibition at 72 h, 10 µM was less than 5%.

Question: What about the inhibition at 10 µM (Hepatitis C virus [21]) of the same compound?
Answer: The inhibition at 10 µM was less than 5%.
